Assay results: PMC11477141, “Chemokine Receptor N-Terminus Charge Dictates Reliance on Post-Translational Modifications for Effective Ligand Capture and Following Boosting by Defense Peptides” (International Journal of Molecular Sciences, 2024)
Where no end group is shown, it is not given here.

Experiments:
CCR1 = target: T1, CCR1 (Homo sapiens, UniProt P32246); experiment: BRET CAMYEL cAMP sensor assay of ligand-induced Gαi signaling via CCR1; format: cell-based; conditions: n = 3
T1 construct: expressed in transfected cells; host or cells: CHO-K1, CHO-pgsB618 (GAG-minus), HEK293 WT / DeltaSia / sC
T1 sequence (P32246 1-355): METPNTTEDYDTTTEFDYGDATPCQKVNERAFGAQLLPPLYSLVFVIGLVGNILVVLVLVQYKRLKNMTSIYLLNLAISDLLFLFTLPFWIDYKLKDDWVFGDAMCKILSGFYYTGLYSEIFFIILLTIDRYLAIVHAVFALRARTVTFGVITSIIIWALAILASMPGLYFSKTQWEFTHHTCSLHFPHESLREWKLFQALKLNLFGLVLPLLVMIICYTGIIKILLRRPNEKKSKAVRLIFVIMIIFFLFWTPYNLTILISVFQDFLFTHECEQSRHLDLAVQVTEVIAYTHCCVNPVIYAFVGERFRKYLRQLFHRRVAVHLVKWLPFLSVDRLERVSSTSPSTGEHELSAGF
Protocol: For quantification of signaling initiated immediate downstream of receptor activation, we used the cAMP binding CAMYEL sensor to perform bioluminescence resonance energy transfer (BRET)-based assays. Shortly, in this assay increased receptor activation leads to an increase in BRET ratio. For detailed information see the Materials and Methods section.
In signaling assays testing the boosting ability of basic peptides, transfected cells were aliquoted into 96-well plates in the presence of 10 µM peptide or PBS vehicle. After R-Luc substrate addition, chemokines were added to reach final concentrations ranging from 0–100 nM (0, 0.1, 1, 10, and 100 nM) and forskolin was applied before reading emission at 475 and 525 nm.
BRET measurements of Gαi signaling and β-arrestin recruitment: Cells were seeded in 6-well plates (500,000 cells/well) and transiently transfected the following day. For BRET measurements of Gαi signaling, cells were transfected with vectors encoding the human chemokine receptors as indicated (160 ng/well) and the CAMYEL sensor (cAMP sensor, YFP-Epac-RLuc) (840 ng/well) using Lipofectamine (6 µL/well). Briefly, DNA was dissolved in 125 µL OPTI-MEM and Lipofectamine was dissolved in 125 µL OPTI-MEM. The DNA and Lipofectamine solutions were combined into a transfection mixture. The transfection mixture was added dropwise to cells incubated in OPTI-MEM (1 mL/well). Transfections were terminated after 5 h by adding 1 mL of fresh culture medium on top of the OPTI-MEM. The following day the cells were loosened from the plates in PBS with 5 mM glucose and subsequently aliquoted in white 96-well iso plates (~25,000 cells/well). When using C21TP variants and defense peptides (hBD2 and histatin), these were added to a final concentration of 10 μM/well, while an equal amount of PBS was added to control cells. The bioluminescence substrate coelenterazine was added to a final conc. of 5 µM. After 10 min, varying ligand concentrations were added. For BRET measurements of Gαi signaling, forskolin was added 5 min after the addition of the ligand, to a final conc. of 5 µM. The plates were kept in the dark at all times. A Perkin Elmer Envision machine was used for measuring the emission signals at 530 and 480 nm. The BRET signal is determined as the ratio eYFP (530 nm)/Rluc (480 nm).
BRET principle with CAMYEL: For quantification of signaling initiated immediately downstream of receptor activation, we used the cAMP binding CAMYEL sensor to perform bioluminescence resonance energy transfer (BRET) based assays. In this assay we measure changes in intracellular cAMP levels in response to receptor activation. Activation of chemokine receptors lead to a decrease in cAMP through inhibition of adenylate cyclase (AC). In the current setup we initially add forskolin that stimulates AC directly to induce an increase in intracellular cAMP, and we then measure the ability of a ligand (chemokine) to counteract the forskolin-induced increase in cAMP. The cAMP sensor (CAMYEL cAMP sensor, YFP-Epac-RLuc) carries the donor Renilla luciferase (Rluc) and the acceptor YFP. Coelenterazine is a substrate for Rluc that will emit light at around 475 nm upon enzymatic cleavage catalyzed by Rluc. When Rluc and YFP are in close proximity, the energy from the emitted light from coelenterazine can be transferred to YFP, resulting in an excitation of YFP, leading to a BRET signal around 525 nm. EPAC is a cAMP binding protein that changes conformation upon cAMP binding. During low cAMP concentrations, Rluc and YFP are near each other, and a strong BRET signal at 525 nm is obtained. When cAMP levels increase, cAMP will bind to EPAC, creating a conformational change, separating Rluc and YFP, reducing the BRET ratio, and increasing the emission from Rluc at 475 nm. Thus, by measuring the ratio between the cAMP-bound (475 nm) and the cAMP-free (525 nm) state of CAMYEL we obtain a measure of receptor activation. […]

S6S7AA-CCR5 = experiment: BRET CAMYEL Gαi signaling via S6S7AA-CCR5; format: cell-based, human; conditions: CHO cells, n = 3
Protocol: BRET measurements of Gαi signaling and β-arrestin recruitment: Cells were seeded in 6-well plates (500,000 cells/well) and transiently transfected the following day. For BRET measurements of Gαi signaling, cells were transfected with vectors encoding the human chemokine receptors as indicated (160 ng/well) and the CAMYEL sensor (cAMP sensor, YFP-Epac-RLuc) (840 ng/well) using Lipofectamine (6 µL/well). Briefly, DNA was dissolved in 125 µL OPTI-MEM and Lipofectamine was dissolved in 125 µL OPTI-MEM. The DNA and Lipofectamine solutions were combined into a transfection mixture. The transfection mixture was added dropwise to cells incubated in OPTI-MEM (1 mL/well). Transfections were terminated after 5 h by adding 1 mL of fresh culture medium on top of the OPTI-MEM. The following day the cells were loosened from the plates in PBS with 5 mM glucose and subsequently aliquoted in white 96-well iso plates (~25,000 cells/well). […] The BRET signal is determined as the ratio eYFP (530 nm)/Rluc (480 nm).
BRET principle with CAMYEL: For quantification of signaling initiated immediately downstream of receptor activation, we used the cAMP binding CAMYEL sensor to perform bioluminescence resonance energy transfer (BRET) based assays. […] The BRET ratio is determined as the ratio between YFP/Rluc, and an increase in BRET ratio indicates a decrease in cAMP and thus increased chemokine receptor activation. […]

[1] = CHO-K1 cells, 10 µM peptide, chemokine 0-100 nM
[2] = HEK293 WT, DeltaSia and sC cells, 10 µM peptide

boosting of CCL5 signaling via CCR1 in GAG-plus and GAG-minus cells (CCR1; CHO GAG-plus and CHO GAG-minus (CHO-pgsB618) cells, 10 µM peptide) | boosting of CCL5-induced Gαi signaling via CCR1 (CCR1; [1]) | boosting of CCL7-induced Gαi signaling via CCR1 (CCR1; [1]) | effect on CCL3-induced Gαi signaling via CCR1 (CCR1; [1]) | boosting of signaling by CCL5, E26A and E66A via CCR1 (CCR1; HEK293 DeltaSia cells, 10 µM peptide) | boosting of CCL3 signaling via CCR1 (CCR1; [2]) | boosting of CCL5 signaling via CCR1 (CCR1; [2]) | boosting of CCL7 signaling via CCR1 (CCR1; [2]) | boosting of signaling by CCL5, E26A and E66A via CCR1 (CCR1; HEK293 sC cells, 10 µM peptide) | boosting of CCL5 signaling via S6S7AA receptor variant (S6S7AA-CCR5; 10 µM peptide) | LogEC50 of CCL5-induced Gαi signaling via CCR1 (CCR1; CHO GAG-minus cells (CHO-pgsB618)) | LogEC50 of CCL5-induced Gαi signaling via CCR1 (CCR1; CHO GAG-plus (WT CHO-K1) cells) | Gαi signaling via CCR1 in DeltaSia and sC cells (CCR1; HEK293 DeltaSia and sC, CCL5 oligomerization variants experiment) | Substance | boosting of signaling by CCL5, E26A and E66A via CCR1 (CCR1; HEK293 WT cells, 10 µM peptide) | Gαi signaling via CCR1 in DeltaSia and sC cells compared to WT cells (CCR1; HEK293 DeltaSia and sC) | Gαi signaling via S6S7AA-CCR5 compared to WT-CCR5 (S6S7AA-CCR5)
boosted | boosted | boosted | not affected | tendency for boosting | not boosted | preserved across all three cell lines | persists | significant boosting | maintained |  |  |  | RKDRGASKTGKKGKGSKGCKRTERSQTPKGP [C21TP^81-111] | boosting occurs with all three versions of CCL5 |  | 
 |  |  |  |  |  |  |  |  |  | −9.42 ± 0.131 | −8.89 ± 0.133 | remains high | CCL5: human chemokine from Peprotech, overall basic |  | persists in DeltaSia and sC to almost the same high level as observed in WT cells | significantly reduced
